Measured values: patent publication US20030187261A1, “Purine derivatives, process for their preparation and use thereof” (priority 2000, published 2003)

Assays:
[1] = system: β-adrenergic receptors; experiment: isoproterenol-induced intracellular cAMP synthesis in rat C6 glioma; type: cell-based; settings: cAMP induced by 5 μM (−) isoproterenol
Description: Rat C6 glioma (ATCC N° CCL107) was cultivated in monolayer in serum-free chemically defined medium containing Ham's F10/minimal essential medium (1:1 vol/vol), 2 mM L-glutamine, 1% (vol/vol) minimal essential medium vitamins (100×), 1% (vol/vol) minimal essential medium nonessential amino acids (100×), 100 U/ml penicillin, 100 μg/ml streptomycin and 30 nM sodium selenite. Incubation was at 37° C. in a humidified atmosphere. Assays were performed in the logaritmic growth phase at a density of 2.5×10^5 cells/cm^2. Intracellular cAMP synthesis was induced by addition of 5 μM (−) isoproterenol. After 30 min incubation at 37° C. the medium was removed and the cellular amount of cAMP determined using the cAMP-enzyme immunoassay kit of Amersham. The IC50 is determined from a dose-response curve in duplicate. The effect of seven purine-analogs was measured after simultaneous addition with isoproterenol.
As P2Y1-like and A2 purinergic receptors, negatively and positively coupled to adenylate cyclase respectively, are present on rat C6 glioma the modulation of the synthesis of cAMP may be due to inhibition of the activation of β-adrenergic receptors by isoproterenol or to activation of purinergic receptors.

[2] = system: T-lymphocyte leukemia Molt3 cell line; experiment: cell growth of Molt3 cell line, flow cytometric cell count; type: cell-based, human; settings: 96 hours of culture
[3] = system: KG1; experiment: clonogenic output of KG1 in methylcellulose; type: cell-based, human; settings: 25 μM, 14 days
Description: Cell lines: Human leukemic cell lines were obtained from the American Type Culture Collection (ATCC, Rockville, Md., USA). They were cultured in Iscove's Modified Dulbecco's Medium (IMDM) supplemented with 10% heat inactivated fetal calf serum (FCS), 200 U/ml penicillin, 200 μg/ml streptomycin and 1 μg/ml amphotericin B. Cells were cultured in a 5% CO2-95% air fully humidified incubator. For effects on clonogenic output, 1000 cells/well were plated in duplicate in methylcellulose (0.9%), supplemented with 20% FCS and cultured for 14 days.
Clonogenic output of KG1 was tested in methylcellulose with 25 μM of some of the novel compounds.

[4] = system: CD34+ hematopoietic progenitors (HPC) from adult bone marrow; experiment: myeloid colony-forming unit (CFU) assay; type: cell-based, human; settings: for IC50: 14 days, methylcellulose, total colony output; for output of the different types of myeloid colonies (CFU-E, CFU-G and CFU-M): scored differentially
[5] = system: KG1 cells; experiment: apoptosis and cell cycle in KG1 cells (fluorescence microscopy, TUNEL); type: cell-based, human; settings: for speed of apoptosis induction (microscopic examination): KG1, 6-72 hours of exposure, FIG. 4; for apoptotic cells in G0-G1 phase versus control cells: KG1, TUNEL with EB, FIG. 6
Description: Nuclear morphology of the cells was analysed with the fluorochromes Hoechst 33342 (λEx max 346 nm; λEm max 460 nm) (Sigma) prepared in phosphate-buffered saline (PBS at 0.1 mg/ml, added to the culture medium at a final concentration of 2 μg/ml and ethidium bromide (EB) (λEx max 540 nm; λEm max 625 nm) (Sigma) prepared in PBS at 100 μg/ml and added to the culture medium at a final concentration of 2 μg/ml (Lizard, 1995). Hundred cells were counted for each sample and percentage of apoptosis was determined.
Control and novel compound-treated cell cultures were washed with PBS and fixed in […] (pH 7.4) for 15 minutes on ice. After washing in PBS, cells were permeabilized in 70% cold (−20° C.) ethanol and transferred to 4° C. for at least 1 hour. After rehydratation in PBS, cells were labeled with 50 μl/well TUNEL reaction mixture (Boehringer Mannheim). Cells were incubated in this solution at 37° C. for 40 minutes, washed in PBS and resuspended in 500 μl PBS containing 5 μg/ml EB and 0.1% RNAse. After 30 minutes of incubation at 4° C., green (FITC-dUTP) and red (EB-DNA) fluorescence of individual cells was measured on a FACscan flow cytometer (Gorczyca, 1993). Negative control (fixed and permeabilized cells incubated with 50 μl label solution per well without terminal transferase, instead of TUNEL reaction mixture) and positive control (fixed and permeabilized cells incubated with DNase I (100 μg/ml) that induces DNA strand breaks) were included in each experimental set-up.
Flow cytometric detection of apoptosis combined with DNA staining can identify apoptotic cells and simultaneously evaluate their position in the cell cycle. This technique was used to provide infomation about the possible cell cycle specific initiation of apoptosis by the tested compounds. If more than 2% of apoptotic cells were detected by the TUNEL method and the absolute number of acquired apoptotic events exceeded 2000, DNA content was simultaneously measured. Within the apoptotic population, analysis and calculation of the different cell cycle phases was carried out by an iterative curve fitting procedure (ModFit LT cell cycle analysis sofware from Verity software house, INC).
Viable, apoptotic, necrotic (=primary necrosis, not following apoptosis) and secondarily necrotic cells (=late apoptotis, evolving to necrosis) were scored differentially after 6, 12, 24, 48 and 72 hours of exposure to novel compounds. For the three products a different apoptosis-inducing pattern could be observed. Apoptosis induction occurs fast after incubation with P23 and P28 but slower after incubation with P27.
Flow cytometric detection of apoptosis and cell cycle analysis: The induction of apoptotic death of KG1 cells by the novel compounds was confirmed using the TUNEL reaction technique (FIG. 5). […] Incubation of KG1 cell line with P27 results in detectable apoptosis after 24 hours. Percentage of apoptotic cells in G0-G1 increases with time, while the number of apoptotic cells in S+G2/M phases decreases. […] After 6 and 12 hours of incubation the apoptotic population seems mainly to evolve from S phase.

Row | Molecule | Effect: fold activation ([1]; 50 μM) | IC50 [2] [µM] | Colony output vs. control cultures without novel compound [3] [%] | IC50 [4] [µM] | output of the different types of myeloid colonies (CFU-E, CFU-G and CFU-M) [4] | time of incubation after which apoptosis was detected (TUNEL) ([5]; KG1) [h] | speed of apoptosis induction (microscopic examination) [5] | apoptotic cells in G0-G1 phase versus control cells [5] | Effect ([1]; 30 min, rat C6 glioma) | IC50 ([1]; 30 min, read-out: I50) [µM] | IC50 ([2]; Homo sapiens, MOLT-3) [µM] | IC50 ([4]; Homo sapiens, 336 h) [µM]
1 | 2-(3-aminoethylamino)-6-(3,3-dihydroxybenzyl)amino-9-isopropylpurine [P28] | 1.3-fold activation | 14 ± 1.8 | 0 | 8.5 | significantly lower colony output | 6 | fast | increase with time after 24 hours | – | – | – | –
2 | CCCCCCNc1nc(NC(CO)c2ccccc2)c2ncn(C(C)C)c2n1 (stereo not shown) [P23, 2-(hexylamino)-6-(1-phenyl-2-hydroxyethylamino)-9-isopropylpurine] | – | – | 19 | – | significantly lower colony output | – | fast | no significant differences were detected | inhibition | 15 ± 2 | 16 ± 0.8 | > 50
